Eight cell lines from the supplement of paper PMC10307832 can be followed below.

What all share (assay): relative viability (nuclei count vs DMSO), 5 days (fraction); higher = more cells survive
Compound in the experiment “Tanzisertib + Linsitinib”: O[C@H]1CC[C@H](Nc2ncc3nc(Nc4c(F)cc(F)cc4F)n([C@H]4CCOC4)c3n2)CC1 [Tanzisertib] + C[C@]1(O)C[C@@H](c2nc(-c3ccc4ccc(-c5ccccc5)nc4c3)c3c(N)nccn32)C1 [Linsitinib] (partner 1 µM)
In outline:
(§1)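 Medians of duplicate plates are given as relative viability. That measure is the nuclei count in treated wells divided by the count in vehicle wells. Counts were taken on 4× images of lung cancer cell lines in 1536-well plates, 5 days after pin-tool dosing the day after seeding with one drug alone or a fixed anchor-drug dose plus five library-drug doses (not always all listed) in √10 steps.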

Compound in experiment [1]: C[C@@H](N)c1ccc(C(=O)Nc2ccnc3[nH]ccc23)cc1 + O=C(c1cc(Cc2n[nH]c(=O)c3ccccc23)ccc1F)N1CCN(C(=O)C2CC2)CC1 [Olaparib] (partner 8 µM)
The essentials: as §1

Compound in the experiment “Tanzisertib + Crizotinib”: O[C@H]1CC[C@H](Nc2ncc3nc(Nc4c(F)cc(F)cc4F)n([C@H]4CCOC4)c3n2)CC1 [Tanzisertib] + C[C@@H](Oc1cc(-c2cnn(C3CCNCC3)c2)cnc1N)c1c(Cl)ccc(F)c1Cl [Crizotinib] (partner 1 µM)
The essentials:
as §1

Compound in experiment [2]: C1CNCCC1C2=CC(=NN2)C3=CC=NC=C3 + Nc1ncn([C@H]2C[C@H](O)[C@@H](CO)O2)c(=O)n1 [Decitabine] (partner 2 µM)
The essentials: as §1

With COR-L 105, the relative viability with Tanzisertib + Linsitinib (first compound 0.08 µM) was found to be 1.13; with Tanzisertib + Linsitinib (first compound 0.253 µM), 0.78; with Tanzisertib + Linsitinib (first compound 0.8 µM), 0.895; in the experiment with Tanzisertib + Linsitinib (first compound 2.53 µM) it was 1.12; with Tanzisertib + Linsitinib (first compound 8 µM), 0.77; in experiment [1] (first compound 0.04 µM), 0.605. Also, the relative viability turned out to be 0.636 in experiment [1] (first compound 0.1265 µM); 0.763 in experiment [1] (first compound 0.4 µM); 0.717 in experiment [1] (first compound 1.265 µM); 0.564 in experiment [1] (first compound 4 µM); 0.81 with Tanzisertib + Crizotinib (first compound 0.08 µM); 0.986 with Tanzisertib + Crizotinib (first compound 0.253 µM). Also, the relative viability with Tanzisertib + Crizotinib (first compound 0.8 µM) was found to be 0.822; with Tanzisertib + Crizotinib (first compound 2.53 µM), 0.855; with Tanzisertib + Crizotinib (first compound 8 µM), 0.622; in experiment [2] (first compound 0.08 µM) it was 0.568; in experiment [2] (first compound 0.8 µM), 0.729; in experiment [2] (first compound 2.53 µM), 0.687. Further, the relative viability in experiment [2] (first compound 8 µM) worked out at 0.772.

Calu-6: the relative viability in the experiment with Tanzisertib + Linsitinib (first compound 0.08 µM) worked out at 1.09; with Tanzisertib + Linsitinib (first compound 0.253 µM), 0.862; in the experiment with Tanzisertib + Linsitinib (first compound 0.8 µM), 0.957; with Tanzisertib + Linsitinib (first compound 2.53 µM), 1.02; with Tanzisertib + Linsitinib (first compound 8 µM), 0.928; in experiment [1] (first compound 0.04 µM), 0.602. The relative viability was 0.592 in experiment [1] (first compound 0.1265 µM); 0.547 in experiment [1] (first compound 0.4 µM); 0.533 in experiment [1] (first compound 1.265 µM); 0.45 in experiment [1] (first compound 4 µM); 0.79 with Tanzisertib + Crizotinib (first compound 0.08 µM); 0.785 with Tanzisertib + Crizotinib (first compound 0.253 µM). Besides, the relative viability in the experiment with Tanzisertib + Crizotinib (first compound 0.8 µM) came to 0.782; with Tanzisertib + Crizotinib (first compound 2.53 µM), 0.756; in the experiment with Tanzisertib + Crizotinib (first compound 8 µM) it was 0.712.

Consider ChaGo-K-1, for which the relative viability worked out at 0.418 in experiment [1] (first compound 0.04 µM); 0.426 in experiment [1] (first compound 0.1265 µM); 0.414 in experiment [1] (first compound 0.4 µM); 0.438 in experiment [1] (first compound 1.265 µM); 0.345 in experiment [1] (first compound 4 µM); 1.21 in the experiment with Tanzisertib + Crizotinib (first compound 0.08 µM). Besides, the relative viability worked out at 1.13 with Tanzisertib + Crizotinib (first compound 0.253 µM); 1.07 with Tanzisertib + Crizotinib (first compound 0.8 µM); 1.09 in the experiment with Tanzisertib + Crizotinib (first compound 2.53 µM); 1.02 with Tanzisertib + Crizotinib (first compound 8 µM); 0.496 in experiment [2] (first compound 0.08 µM); 0.525 in experiment [2] (first compound 0.8 µM). The relative viability in experiment [2] (first compound 2.53 µM) is 0.506; in experiment [2] (first compound 8 µM), 0.529.

As for EBC-1, the relative viability with Tanzisertib + Linsitinib (first compound 0.08 µM) was 1.29; with Tanzisertib + Linsitinib (first compound 0.253 µM) it was 0.876; in the experiment with Tanzisertib + Linsitinib (first compound 0.8 µM), 0.846; with Tanzisertib + Linsitinib (first compound 2.53 µM), 0.899; with Tanzisertib + Linsitinib (first compound 8 µM) it was 0.783; in experiment [1] (first compound 0.04 µM), 0.847. Besides, the relative viability in experiment [1] (first compound 0.1265 µM) came to 0.713; in experiment [1] (first compound 0.4 µM) it was 0.678; in experiment [1] (first compound 1.265 µM) it was 0.683; in experiment [1] (first compound 4 µM), 0.583; with Tanzisertib + Crizotinib (first compound 0.08 µM) it was 0.206; with Tanzisertib + Crizotinib (first compound 0.253 µM), 0.168. The results for the relative viability with Tanzisertib + Crizotinib (first compound 0.8 µM), with Tanzisertib + Crizotinib (first compound 2.53 µM) and in the experiment with Tanzisertib + Crizotinib (first compound 8 µM) were 0.195, 0.178 and 0.185, respectively.

In the case of EKVX, the relative viability with Tanzisertib + Linsitinib (first compound 0.08 µM) was determined as 0.953; with Tanzisertib + Linsitinib (first compound 0.253 µM), 1.02; with Tanzisertib + Linsitinib (first compound 0.8 µM), 1.04; with Tanzisertib + Linsitinib (first compound 2.53 µM), 1.02; with Tanzisertib + Linsitinib (first compound 8 µM), 0.822; in experiment [1] (first compound 0.04 µM), 0.993. Besides, the relative viability in experiment [1] (first compound 0.1265 µM) was found to be 1.14; in experiment [1] (first compound 0.4 µM) it was 1.03; in experiment [1] (first compound 1.265 µM), 0.923; in experiment [1] (first compound 4 µM), 0.727; in the experiment with Tanzisertib + Crizotinib (first compound 0.08 µM), 0.895; in the experiment with Tanzisertib + Crizotinib (first compound 0.253 µM), 0.867. Further, the relative viability with Tanzisertib + Crizotinib (first compound 0.8 µM) was determined as 0.967; in the experiment with Tanzisertib + Crizotinib (first compound 2.53 µM) it was 0.898; in the experiment with Tanzisertib + Crizotinib (first compound 8 µM), 0.853; in experiment [2] (first compound 0.08 µM), 0.291; in experiment [2] (first compound 2.53 µM), 0.318; in experiment [2] (first compound 8 µM) it was 0.323.

Turning to EMC-BAC-2, the relative viability was 0.825 in the experiment with Tanzisertib + Linsitinib (first compound 0.08 µM); 0.806 with Tanzisertib + Linsitinib (first compound 0.253 µM); 0.825 with Tanzisertib + Linsitinib (first compound 0.8 µM); 0.743 in the experiment with Tanzisertib + Linsitinib (first compound 2.53 µM); 0.771 with Tanzisertib + Linsitinib (first compound 8 µM); 0.516 in experiment [1] (first compound 0.1265 µM). Besides, the relative viability in experiment [1] (first compound 0.4 µM) was determined as 0.477; in experiment [1] (first compound 1.265 µM), 0.505; in experiment [1] (first compound 4 µM) it was 0.425; in the experiment with Tanzisertib + Crizotinib (first compound 0.08 µM) it was 0.799; in the experiment with Tanzisertib + Crizotinib (first compound 0.253 µM), 0.74; with Tanzisertib + Crizotinib (first compound 0.8 µM), 0.705. The relative viability was determined as 0.763 in the experiment with Tanzisertib + Crizotinib (first compound 2.53 µM); 0.747 in the experiment with Tanzisertib + Crizotinib (first compound 8 µM); 1.06 in experiment [2] (first compound 0.8 µM); 1 in experiment [2] (first compound 2.53 µM); 1.03 in experiment [2] (first compound 8 µM).

As to EPLC-272H, the relative viability with Tanzisertib + Linsitinib (first compound 0.08 µM) is 1.46; with Tanzisertib + Linsitinib (first compound 0.253 µM) it was 1.18; in the experiment with Tanzisertib + Linsitinib (first compound 0.8 µM), 1.19; with Tanzisertib + Linsitinib (first compound 2.53 µM), 1.12; in the experiment with Tanzisertib + Linsitinib (first compound 8 µM) it was 1.08; in experiment [1] (first compound 0.04 µM), 0.729. Besides, the relative viability came out at 1.17 in experiment [1] (first compound 0.1265 µM); 0.808 in experiment [1] (first compound 0.4 µM); 0.703 in experiment [1] (first compound 1.265 µM); 0.394 in experiment [1] (first compound 4 µM); 0.958 with Tanzisertib + Crizotinib (first compound 0.08 µM); 0.862 with Tanzisertib + Crizotinib (first compound 0.253 µM). Moreover, the relative viability in the experiment with Tanzisertib + Crizotinib (first compound 0.8 µM) stood at 0.864; with Tanzisertib + Crizotinib (first compound 2.53 µM) it was 0.874; with Tanzisertib + Crizotinib (first compound 8 µM), 0.872; in experiment [2] (first compound 0.08 µM), 0.372; in experiment [2] (first compound 0.8 µM), 0.385; in experiment [2] (first compound 2.53 µM), 0.389. In addition, in experiment [2] (first compound 8 µM), the relative viability stood at 0.365.

Regarding H3255, the relative viability with Tanzisertib + Linsitinib (first compound 0.08 µM) was determined as 0.966; with Tanzisertib + Linsitinib (first compound 0.253 µM), 0.841; with Tanzisertib + Linsitinib (first compound 0.8 µM), 0.983; in the experiment with Tanzisertib + Linsitinib (first compound 2.53 µM), 0.907; in the experiment with Tanzisertib + Linsitinib (first compound 8 µM), 0.636; in experiment [1] (first compound 0.04 µM) it was 0.533. In addition, the relative viability was found to be 0.607 in experiment [1] (first compound 0.1265 µM); 0.606 in experiment [1] (first compound 0.4 µM); 0.558 in experiment [1] (first compound 1.265 µM); 0.48 in experiment [1] (first compound 4 µM); 0.933 in the experiment with Tanzisertib + Crizotinib (first compound 0.08 µM); 0.855 with Tanzisertib + Crizotinib (first compound 0.253 µM). In addition, the relative viability with Tanzisertib + Crizotinib (first compound 0.8 µM) was found to be 1.01; with Tanzisertib + Crizotinib (first compound 2.53 µM), 0.875; with Tanzisertib + Crizotinib (first compound 8 µM), 0.662; in experiment [2] (first compound 0.08 µM) it was 0.532; in experiment [2] (first compound 2.53 µM) it was 0.674; in experiment [2] (first compound 8 µM), 0.587.
